Assay results as given in ChEMBL document CHEMBL4342447, “l-Phenylalanine Alters the Privileged Secondary Metabolite Production in the Marine-Derived Fungus Trichoderma erinaceum F1-1” (J Nat Prod, 2020).

Columns and labels:
MDA-MB-435 = assay: Cytotoxicity against human MDA-MB-435 cells assessed as reduction in cell viability by MTT assay; type: functional, cell-based
A549 = assay: Cytotoxicity against human A549 cells assessed as reduction in cell viability by MTT assay; type: functional, cell-based

| SMILES | IC50 (MDA-MB-435) | IC50 (A549) |
| --- | --- | --- |
| CCC(=O)Oc1cc(C)cc(Oc2cc(C)cc(OC)c2)c1 | 31.9 µM | – |
| COc1cc(C)cc(Oc2cc(C)cc(OC)c2)c1 | 12.5 µM | – |
| CC(C)(c1ccc(O)cc1)c1ccc(OCC(O)COc2ccc(C(C)(C)c3ccc(O)cc3)cc2)cc1 | 22.3 µM | 18.4 µM |
| COc1cc(C)cc(Oc2cc(C)cc(O)c2)c1 [CORDYOL E] | 41.1 µM | – |
